Source: patent publication US8940896B2, “Tetra-cyclic carboline derivatives useful in the inhibition of angiogenesis” (PTC Therapeutics, Inc., priority 2004, dated 2015)

test system: VEGF; assay: Hypoxia-inducible endogenous VEGF expression, VEGF ELISA assay; format: cell-based; settings: HeLa cells, hypoxic conditions (1% O2, 5% CO2), VEGF in conditioned media
Experimental: The ability of the compounds of the invention to modulate hypoxia-inducible endogenous VEGF expression may be analyzed as follows. VEGF protein levels may be monitored by an ELISA assay (R&D Systems). Briefly, HeLa cells may be cultured for 24-48 hours under hypoxic conditions (1% O2, 5% CO2, balanced with nitrogen) in the presence or absence of a compound of the invention. The conditioned media may then be assayed by ELISA, and the concentration of VEGF calculated from the standard ELISA curve of each assay.
A dose-response analysis may be performed using the ELISA assay and conditions described above. The conditions for the dose-response ELISA are analogous to those described above. A series of, e.g., seven different concentrations may be analyzed. In parallel, a dose-response cytotoxicity assay may be performed using CellTiter Glo (Promega) under the same conditions as the ELISA to ensure that the inhibition of VEGF expression was not due to the cytotoxicity. Dose-response curves may be plotted using percentage inhibition versus concentration of the compound, and EC50 and CC50 values may be generated for each compound with the maximal inhibition set as 100% and the minimal inhibition as 0%.

EC50	SMILES
< 8 nM	COc1ccc(C2c3[nH]c4ccc(Br)cc4c3CC3C(=O)N(C4CCCCC4)C(=S)N32)cc1 (stereo not drawn) [Compound 185]
< 8 nM	COc1ccc(C2c3[nH]c4ccc(Br)cc4c3CC3C(=O)N(C4CCCCC4)C(=S)N32)cc1 (stereo not drawn) [Compound 186]
> 1000 nM	COc1ccc(C2c3[nH]c4ccc(Br)cc4c3CC3C(=O)N(C4CCCCC4)C(=S)N32)cc1 (stereo not drawn) [Compound 187]

same assay, conditions: Homo sapiens, HeLa, HeLa cells, hypoxic conditions (1% O2, 5% CO2), VEGF in conditioned media

SMILES	EC50
CCOC(=O)C(C)N1C(=O)C2Cc3c([nH]c4ccc(Br)cc34)C(c3ccc(OC)cc3)N2C1=S (stereo not drawn) [Compound 144]	8 to 40 nM
COc1ccc(C2c3[nH]c4ccc(Br)cc4c3CC3C(=O)N(c4cccc(C#N)c4)C(=S)N32)cc1 (stereo not drawn) [Compound 146]	< 8 nM
COCCOc1ccc([C@@H]2c3[nH]c4ccc(Br)cc4c3C[C@H]3C(=O)N(C4CCCCC4)C(=S)N23)cc1 [Compound 148]	200 to 1000 nM
O=C1C2Cc3c([nH]c4ccc(Br)cc34)C(c3ccc(OCCCn4ccnn4)cc3)N2C(=S)N1c1ccc(Cl)cc1 (stereo not drawn) [Compound 149]	< 8 nM
CC(C)N1C(=O)C2Cc3c([nH]c4ccc(Br)cc34)C(c3ccc(OCCCN4CCOCC4)cc3)N2C1=S (stereo not drawn) [Compound 153]	8 to 40 nM
CCN(CC)CCCOc1ccc(C2c3[nH]c4ccc(Br)cc4c3CC3C(=O)N(C(C)C)C(=S)N32)cc1 (stereo not drawn) [Compound 154]	< 8 nM
CC(C)N1C(=O)C2Cc3c([nH]c4ccc(Br)cc34)C(c3ccc(OCCCN4CCSCC4)cc3)N2C1=S (stereo not drawn) [Compound 157]	40 to 200 nM
COCCN(C)CCCOc1ccc(C2c3[nH]c4ccc(Br)cc4c3CC3C(=O)N(C(C)C)C(=S)N32)cc1 (stereo not drawn) [Compound 158]	< 8 nM
CC(C)N1C(=O)C2Cc3c([nH]c4ccc(Br)cc34)C(c3ccc(OCCCN4CCN(C)CC4)cc3)N2C1=S (stereo not drawn) [Compound 159]	< 8 nM
COc1ccc(C2c3[nH]c4ccc(Br)cc4c3CC3C(=O)N(c4ccccc4Cl)C(=S)N32)cc1 (stereo not drawn) [Compound 164]	40 to 200 nM
COc1ccc(C2c3[nH]c4ccc(Br)cc4c3CC3C(=O)N(c4cccc(F)c4)C(=S)N32)cc1 (stereo not drawn) [Compound 167]	< 8 nM
COc1ccc(C2c3[nH]c4ccc(Br)cc4c3CC3C(=O)N(c4ccc(F)cc4)C(=S)N32)cc1 (stereo not drawn) [Compound 168]	< 8 nM
COc1ccc(C2c3[nH]c4ccc(Br)cc4c3CC3C(=O)N(c4ccccc4C)C(=S)N32)cc1 (stereo not drawn) [Compound 169]	40 to 200 nM
COc1ccc(C2c3[nH]c4ccc(Br)cc4c3CC3C(=O)N(c4cccc(C)c4)C(=S)N32)cc1 (stereo not drawn) [Compound 170]	< 8 nM
COc1ccc(C2c3[nH]c4ccc(Br)cc4c3CC3C(=O)N(c4ccc(F)cc4F)C(=S)N32)cc1 (stereo not drawn) [Compound 172]	< 8 nM
COc1ccc(C2c3[nH]c4ccc(Br)cc4c3CC3C(=O)N(c4ccc(Cl)c(C(F)(F)F)c4)C(=S)N32)cc1 (stereo not drawn) [Compound 173]	< 8 nM
COc1ccc(C2c3[nH]c4ccc(Br)cc4c3CC3C(=O)N(c4ccc(F)cc4Cl)C(=S)N32)cc1 (stereo not drawn) [Compound 174]	40 to 200 nM
COc1ccc(C2c3[nH]c4ccc(Br)cc4c3CC3C(=O)N(c4ccc([N+](=O)[O-])cc4)C(=S)N32)cc1 (stereo not drawn) [Compound 176]	< 8 nM
COc1ccc(C2c3[nH]c4ccc(Br)cc4c3CC3C(=O)N(C(=O)c4ccccc4)C(=S)N32)cc1 (stereo not drawn) [Compound 178]	40 to 200 nM
COc1ccc(C2c3[nH]c4ccc(Br)cc4c3CC3C(=O)N(c4ccc5c(c4)OCO5)C(=S)N32)cc1 (stereo not drawn) [Compound 179]	< 8 nM
COc1ccc(C2c3[nH]c4ccc(Br)cc4c3CC3C(=O)N(CCc4ccccc4)C(=S)N32)cc1 (stereo not drawn) [Compound 181]	< 8 nM
COc1ccc(C2c3[nH]c4ccc(Br)cc4c3CC3C(=O)N(c4ccccc4C(C)C)C(=S)N32)cc1 (stereo not drawn) [Compound 183]	40 to 200 nM
O=C1C2Cc3c([nH]c4ccc(Br)cc34)C(c3ccc(OCCCCl)cc3)N2C(=S)N1c1ccc(Cl)cc1 (stereo not drawn) [Compound 188]	< 8 nM
O=C1C2Cc3c([nH]c4ccc(Br)cc34)C(c3ccc(OCCCN4CCCC4)cc3)N2C(=S)N1c1ccc(Cl)cc1 (stereo not drawn) [Compound 189]	8 to 40 nM
O=C1C2Cc3c([nH]c4ccc(Br)cc34)C(c3ccc(OCCCN4CCCCC4)cc3)N2C(=S)N1c1ccc(Cl)cc1 (stereo not drawn) [Compound 190]	8 to 40 nM
O=C1C2Cc3c([nH]c4ccc(Br)cc34)C(c3ccc(OCCCN4CCOCC4)cc3)N2C(=S)N1c1ccc(Cl)cc1 (stereo not drawn) [Compound 192]	< 8 nM
CC(C)NCCCOc1ccc(C2c3[nH]c4ccc(Br)cc4c3CC3C(=O)N(c4ccc(Cl)cc4)C(=S)N32)cc1 (stereo not drawn) [Compound 194]	8 to 40 nM
O=C1C2Cc3c([nH]c4ccc(Br)cc34)C(c3ccc(OCCCN4CCSCC4)cc3)N2C(=S)N1c1ccc(Cl)cc1 (stereo not drawn) [Compound 196]	< 8 nM
CN1CCN(CCCOc2ccc(C3c4[nH]c5ccc(Br)cc5c4CC4C(=O)N(c5ccc(Cl)cc5)C(=S)N43)cc2)CC1 (stereo not drawn) [Compound 198]	< 8 nM
COc1ccc(C2c3[nH]c4ccc(Br)cc4c3CC3C(=O)N(Cc4ccc(Cl)cc4)C(=S)N32)cc1 (stereo not drawn) [Compound 201]	< 8 nM

Next, values leading:

EC50	SMILES
8 to 40 nM	COC(=O)c1ccc(N2C(=O)C3Cc4c([nH]c5ccc(Br)cc45)C(c4ccc(OC)cc4)N3C2=S)cc1 (stereo not drawn) [Compound 139]
< 8 nM	COC(=O)c1cccc(N2C(=O)C3Cc4c([nH]c5ccc(Br)cc45)C(c4ccc(OC)cc4)N3C2=S)c1 (stereo not drawn) [Compound 140]
< 8 nM	COc1ccc(C2c3[nH]c4ccc(Br)cc4c3CC3C(=O)N(c4ccc(OC(C)=O)cc4)C(=S)N32)cc1 (stereo not drawn) [Compound 141]
< 8 nM	COc1ccc(C2c3[nH]c4ccc(Br)cc4c3CC3C(=O)N(c4cccc(OC)c4)C(=S)N32)cc1 (stereo not drawn) [Compound 142]
8 to 40 nM	COc1ccc(C2c3[nH]c4ccc(Br)cc4c3CC3C(=O)N(CC4CCCO4)C(=S)N32)cc1 (stereo not drawn) [Compound 143]
< 8 nM	CCOC(=O)CC(C)N1C(=O)C2Cc3c([nH]c4ccc(Br)cc34)C(c3ccc(OC)cc3)N2C1=S (stereo not drawn) [Compound 145]
40 to 200 nM	COC(=O)N1C(=O)C2Cc3c([nH]c4ccc(Br)cc34)C(c3ccc(OC)cc3)N2C1=S (stereo not drawn) [Compound 147]
< 8 nM	CC(C)N1C(=O)C2Cc3c([nH]c4ccc(Br)cc34)C(c3ccc(OCCCN4CCCC4)cc3)N2C1=S (stereo not drawn) [Compound 150]
< 8 nM	CC(C)N1C(=O)C2Cc3c([nH]c4ccc(Br)cc34)C(c3ccc(OCCCN4CCCCC4)cc3)N2C1=S (stereo not drawn) [Compound 151]
< 8 nM	CC(=O)N1CCN(CCCOc2ccc(C3c4[nH]c5ccc(Br)cc5c4CC4C(=O)N(C(C)C)C(=S)N43)cc2)CC1 (stereo not drawn) [Compound 152]
< 8 nM	CC(C)NCCCOc1ccc(C2c3[nH]c4ccc(Br)cc4c3CC3C(=O)N(C(C)C)C(=S)N32)cc1 (stereo not drawn) [Compound 155]
8 to 40 nM	COCCN(CCCOc1ccc(C2c3[nH]c4ccc(Br)cc4c3CC3C(=O)N(C(C)C)C(=S)N32)cc1)CCOC (stereo not drawn) [Compound 156]
8 to 40 nM	CC(C)N1C(=O)C2Cc3c([nH]c4ccc(Br)cc34)C(c3ccc(OCCCn4ccnc4)cc3)N2C1=S (stereo not drawn) [Compound 160]
< 8 nM	COc1ccc(C2c3[nH]c4ccc(Br)cc4c3CC3C(=O)N(c4cccc(C(F)(F)F)c4)C(=S)N32)cc1 (stereo not drawn) [Compound 162]
< 8 nM	COc1ccc(C2c3[nH]c4ccc(Br)cc4c3CC3C(=O)N(c4ccc(C(F)(F)F)cc4)C(=S)N32)cc1 (stereo not drawn) [Compound 163]
< 8 nM	COc1ccc(C2c3[nH]c4ccc(Br)cc4c3CC3C(=O)N(c4cccc(Cl)c4)C(=S)N32)cc1 (stereo not drawn) [Compound 165]
8 to 40 nM	COc1ccc(C2c3[nH]c4ccc(Br)cc4c3CC3C(=O)N(c4ccccc4F)C(=S)N32)cc1 (stereo not drawn) [Compound 166]
< 8 nM	COc1ccc(C2c3[nH]c4ccc(Br)cc4c3CC3C(=O)N(c4ccc(C)cc4)C(=S)N32)cc1 (stereo not drawn) [Compound 171]
< 8 nM	COc1ccc(C2c3[nH]c4ccc(Br)cc4c3CC3C(=O)N(c4cccc(Br)c4)C(=S)N32)cc1 (stereo not drawn) [Compound 175]
40 to 200 nM	COc1ccc(C2c3[nH]c4ccc(Br)cc4c3CC3C(=O)N(c4ccc(OC)cc4C)C(=S)N32)cc1 (stereo not drawn) [Compound 177]
< 8 nM	COc1ccc(C2c3[nH]c4ccc(Br)cc4c3CC3C(=O)N(Cc4ccco4)C(=S)N32)cc1 (stereo not drawn) [Compound 180]
< 8 nM	COc1ccc(C2c3[nH]c4ccc(Br)cc4c3CC3C(=O)N(c4cccc(OC(C)=O)c4)C(=S)N32)cc1 (stereo not drawn) [Compound 182]
< 8 nM	CC(C)N1C(=O)C2Cc3c([nH]c4ccc(Br)cc34)C(c3ccc(OCCCn4cncn4)cc3)N2C1=S (stereo not drawn) [Compound 184]
8 to 40 nM	CCN(CC)CCCOc1ccc(C2c3[nH]c4ccc(Br)cc4c3CC3C(=O)N(c4ccc(Cl)cc4)C(=S)N32)cc1 (stereo not drawn) [Compound 193]
8 to 40 nM	CCOCN(C)CCCOc1ccc(C2c3[nH]c4ccc(Br)cc4c3CC3C(=O)N(c4ccc(Cl)cc4)C(=S)N32)cc1 (stereo not drawn) [Compound 197]
< 8 nM	O=C1C2Cc3c([nH]c4ccc(Br)cc34)C(c3ccc(OCCCn4ccnc4)cc3)N2C(=S)N1c1ccc(Cl)cc1 (stereo not drawn) [Compound 199]
8 to 40 nM	COc1ccc(C2c3[nH]c4ccc(Br)cc4c3CC3C(=O)N(c4ccc(C(=O)O)cc4)C(=S)N32)cc1 (stereo not drawn) [Compound 200]
